# Test system: SLC22A9
# Experiment: Placebo controlled study of ammonium chloride oral supplement: SLC22A9 expression from hair follicles
# Format: in vivo
# Settings: 268 mg ammonium chloride oral supplement daily for 5 days; measured at baseline and day 5; 10 subjects active vs 10 placebo; p=0.01
# Protocol: A placebo controlled study was conducted with a 268 mg ammonium chloride oral supplement to ascertain increase in SLC22A9 up-regulation. Ten subjects were administered the placebo and 10 subjects were administered ammonium chloride daily for 5 days. The SLC22A9 expression from hair follicles was measured at baseline and day 5. SLC22A9 increased 3 folds and was statistically significant p=0.01 increased in the active vs placebo group.
structure (smiles),measurement,value
Cl.N [ammonium chloride],"SLC22A9 expression from hair follicles, increase",3 folds
